Measured values: patent EP3724209B1, “ELASTOMERIC PEPTIDE” (Politecnico di Milano, priority 2017, dated 2019)
Where a SMILES comes first, the peptide text is derived from it. Where no end group is shown, it is not given here. [ ]: non-standard residue; d: D form. Tyr(3,5-Br2) = N[C@@H](Cc1cc(Br)c(O)c(Br)c1)C(=O)O

Assays:
[1] = solubility test; assay type: physicochemical; conditions: for aspect of solution after cooling: 100 mM solution; for aspect of solution after heating: 100 mM solutions (5 mg in 50 µl); for solubility: buffers at pH 3, 7, and 12 (10 mM) and pure water
Experimental: The isoelectric point (calculated on http://web.expasy.org/compute-pi/) of SDSYGAP (SEQ ID no. 6), comparative, and an oligopeptide according to the present invention, i.e., SDS-Y(3,5 Br)-GAP is 3.8. Three buffers at pH 3, 7, and 12 (10 mM concentration) and pure water were used as solvent for the two oligopeptides.

[2] = tested on: HeLa (Human cervical cancer cells); test: CellTiter-Glo Luminescent Cell Viability Assay; assay type: cell-based; conditions: 24 hours incubation
Experimental: HeLa (Human cervical cancer cells) were grown in DMEM supplemented with 1 mM sodium pyruvate, 10 mM HEPES buffer, 100 U/mL penicillin, 0.1 mg/mL streptomycin, 2 mM glutamine and 10% FBS (hereafter referred to as complete medium), at 37°C in a 5% CO2 humidified atmosphere. Cells were splitted the day before seeding and used within eight passages. The cells were seeded at a density of 7000 cell/cm^2. For evaluating cell viability, the day after the seeding the cell medium was replaced with medium containing the wild type or the halogenated oligopeptides and cells were incubated for 24 hours.

[3] = tested on: Pseudokirchneriella sub capitata
Experimental: An ecotoxicity test on Pseudokirchneriella sub capitata was performed to evaluate I% (inhibition percentage effect) and IC50 (concentration which determines the 50% inhibition of growth on the population) of the halogenated peptide SDS-Y(3,5 Br)-GAP.
The halogenated peptide SDS-Y(3,5 Br)-GAP was dissolved in water at 100 mg/l and tested at the following concentrations: 50 mg/l, 25 mg/l, 12.5 mg/l and 6.25 mg/l. Each sample was tested in triplicate.
After 72 hours of incubation with the sample or controls, a spectrophotometric test was performed at 670nm as a measure of cell density.

[4] = Dynamic Light Scattering aging study (autocorrelation lag time); assay type: physicochemical; conditions: 10 mM in water
Experimental: Dynamic Light Scattering measurements were performed on an ALV/CGS-3 Platform-based Goniometer System equipped with an ALV-7004 correlator and an ALV/CGS-3 goniometer. The signal was detected by an ALV-Static and Dynamic Enhancer detection unit. The light source was the second harmonic of a diode-pumped Coherent Innova Nd:YAG laser (λ = 532 nm), linearly polarized in the vertical direction. Measurements were performed at 25°C. Approximately 1 ml of sample solution was transferred into the cylindrical Hellma scattering cell.
The dynamic information on structures present in the peptide solutions were derived from the normalized autocorrelation function g2 (q, τ) of the scattered intensity, which is measured according to g2 (q, τ) = (〈I(q, t)I(q,t+τ)〉)/((〈I(q, t)〉)^2) [formula] where q is the scattering vector, τ is the relaxation time and I is the scattered intensity. Higher relaxation times correspond to larger self-assembled structures. […] Results are reported in Figure 7, as graphs showing the autocorrelation functions of wild type (panel A) or halogenated (panel B) oligopeptide 10 mM in water at 90°C. The autocorrelation functions at 90°C show increasing Lag Time, i.e., increasing dimensions of the self-assembled structures, over time. Table 1 summarizes and compares the results, showing that halogenated oligopeptide form bigger structures compared to the wild type one. This is a further indication that bromine atoms play a role in the aggregation behavior of the peptide sequence. The same aging study was performed in buffer at pH 7, with similar results (data not shown).

| Molecule | aspect of solution after cooling [1] | aspect of solution after heating [1] | solubility [1] | cell viability [2] | ecotoxicity [3] | IC50 (concentration which determines the 50% inhibition of growth on the population) ([3]; 72 hours of incubation) | Lag time ([4]; aging time t=0) | Lag time ([4]; aging time t=1 week) | Lag time ([4]; aging time t=24 h) | Lag time ([4]; aging time t=48 h) |
| --- | --- | --- | --- | --- | --- | --- | --- | --- | --- | --- |
| C[C@H](NC(=O)CNC(=O)[C@H](Cc1cc(Br)c(O)c(Br)c1)NC(=O)[C@H](CO)NC(=O)[C@H](CC(=O)O)NC(=O)[C@@H](N)CO)C(=O)N1CCC[C@H]1C(=O)O [SDS-Y(3,5 Br)-GAP] (H-SDS[Tyr(3,5-Br2)]GAP-OH) | milky | completely clear | good solubility properties in all the tested conditions | not toxic even at high concentrations | not ecotoxic | 54 µg/mL |  |  |  |  |
| SDSYGAP [SDSYGAP] | still clear | completely clear | good solubility properties in all the tested conditions | not toxic even at high concentrations |  |  | 1.512 ms | 3.826 ms | 2.859 ms | 1.919 ms |
